What was measured:
[1] = higher than parent drug iloperidone; cited from earlier work
[2] = target: adrenergic α1 receptors; assay: radioligand binding, adrenergic α1 receptor; conditions: standard radioligand binding; human recombinant receptors and native rat brain receptors
Procedure: (§1) Receptor affinity is determined with standard radioligand binding techniques, using human recombinant receptors and native rat brain receptors. Blockade of dopamine D2 and noradrenergic α2c receptors is tested in cell-lines using luciferase reporter gene assays based on 2nd messenger responses.

[3] = target: T1, adrenergic α2c receptors (Homo sapiens, UniProt P18825); assay: radioligand binding, adrenergic α2c receptor; conditions: standard radioligand binding; human recombinant receptors and native rat brain receptors; read-out: affinity for adrenergic α2c receptors (pKi) (converted)
T1 sequence (P18825 1-462): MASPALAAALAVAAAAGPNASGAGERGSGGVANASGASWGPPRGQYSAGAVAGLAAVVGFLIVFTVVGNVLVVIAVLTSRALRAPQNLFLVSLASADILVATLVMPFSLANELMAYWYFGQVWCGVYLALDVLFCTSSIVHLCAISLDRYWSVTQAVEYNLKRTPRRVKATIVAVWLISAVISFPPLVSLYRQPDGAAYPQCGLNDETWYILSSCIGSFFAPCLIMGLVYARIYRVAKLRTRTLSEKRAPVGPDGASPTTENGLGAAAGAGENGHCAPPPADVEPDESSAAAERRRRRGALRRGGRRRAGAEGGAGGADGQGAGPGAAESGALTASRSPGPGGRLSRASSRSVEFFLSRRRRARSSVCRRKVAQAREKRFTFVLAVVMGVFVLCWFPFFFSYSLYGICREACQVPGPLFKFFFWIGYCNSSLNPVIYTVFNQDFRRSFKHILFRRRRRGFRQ
Procedure: as §1

[4] = target: 5HT2A receptors (Homo sapiens, UniProt P28223); assay: radioligand binding, 5HT2A receptor; conditions: standard radioligand binding; human recombinant receptors and native rat brain receptors; read-out: affinity for 5HT2A receptors (pKi) (converted)
5HT2A receptors, sequence (P28223 whole entry): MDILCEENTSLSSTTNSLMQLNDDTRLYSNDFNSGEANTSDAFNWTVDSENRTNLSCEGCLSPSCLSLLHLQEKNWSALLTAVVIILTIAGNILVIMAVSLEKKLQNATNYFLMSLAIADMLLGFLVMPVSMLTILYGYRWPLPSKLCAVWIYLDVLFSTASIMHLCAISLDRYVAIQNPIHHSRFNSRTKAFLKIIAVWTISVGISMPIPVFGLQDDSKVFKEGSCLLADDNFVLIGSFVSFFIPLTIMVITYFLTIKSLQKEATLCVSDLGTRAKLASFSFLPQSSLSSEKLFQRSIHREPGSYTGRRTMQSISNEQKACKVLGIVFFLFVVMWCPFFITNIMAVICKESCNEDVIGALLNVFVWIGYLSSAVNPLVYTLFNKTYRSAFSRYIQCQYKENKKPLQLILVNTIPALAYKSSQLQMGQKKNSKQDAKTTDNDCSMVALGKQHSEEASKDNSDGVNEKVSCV
Procedure: as §1

[5] = target: 5HT6 receptors (Homo sapiens, UniProt P50406); assay: radioligand binding, 5HT6 receptor; conditions: standard radioligand binding; human recombinant receptors and native rat brain receptors; read-out: affinity for 5HT6 receptors (pKi) (converted)
5HT6 receptors, sequence (P50406 whole entry): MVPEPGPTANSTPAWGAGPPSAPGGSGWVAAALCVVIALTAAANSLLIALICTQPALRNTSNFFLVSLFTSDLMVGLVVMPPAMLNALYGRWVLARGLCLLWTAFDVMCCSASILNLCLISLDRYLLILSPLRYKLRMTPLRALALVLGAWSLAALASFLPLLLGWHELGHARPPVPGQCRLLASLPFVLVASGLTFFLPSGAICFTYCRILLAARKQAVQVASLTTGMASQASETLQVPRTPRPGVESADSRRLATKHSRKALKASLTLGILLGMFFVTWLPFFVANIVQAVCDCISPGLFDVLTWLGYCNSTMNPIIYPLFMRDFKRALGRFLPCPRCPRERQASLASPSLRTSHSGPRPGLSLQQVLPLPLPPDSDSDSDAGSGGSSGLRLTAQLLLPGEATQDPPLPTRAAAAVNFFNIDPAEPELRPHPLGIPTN
Procedure: as §1

[6] = metabolite formation in humans following administration of iloperidone; assay type: in vivo, human
Excerpt: P-88-8991 consists of a mixture of two enantiomers which have never been disclosed in the literature.

Compound | plasma levels in human relative to the parent drug [1] | affinity for adrenergic α1 receptors (pKi) [2] | Ki [3] [nM] | Ki [4] [nM] | Ki [5] [nM] | stereospecific formation of P-88-8991 enantiomer [6]
COc1cc(C(C)O)ccc1OCCCN1CCC(c2noc3cc(F)ccc23)CC1 (racemic) [P-88-8991] | about 1.5 fold | – | – | – | – | –
COc1cc([C@H](C)O)ccc1OCCCN1CCC(c2noc3cc(F)ccc23)CC1 [formula I, (S)-1-(4-{3-[4-(6-fluoro-benzo[d]isoxazol-3-yl)-piperidin-1-yl]-propoxy}-3-methoxy-phenyl)-ethanol] | – | 8.9 | 15.8 | 1.26 | 7.94 | –
COc1cc([C@@H](C)O)ccc1OCCCN1CCC(c2noc3cc(F)ccc23)CC1 [formula II, (R)-1-(4-{3-[4-(6-fluoro-benzo[d]isoxazol-3-yl)-piperidin-1-yl]propoxy}-3-methoxy-phenyl}-ethanol] | – | 9.2 | 20 | 1.26 | 15.8 | –
COc1cc(C(C)=O)ccc1OCCCN1CCC(c2noc3cc(F)ccc23)CC1 [iloperidone, 1-(4-{3-[4-(6-fluoro-benzo[d]isoxazol-3-yl)piperidin-1-yl]propoxy}-3-methoxy-phenyl)-ethanone] | – | – | – | – | – | humans produce only one enantiomer stereospecifically
